Here are results for 25 molecules from patent publication US10501449B2 (priority 2018, dated 2019).

One series has as its target hROMK (human Kir1.1) (Homo sapiens (Human), UniProt P48048). In words: cell-based. The conditions noted are these: CHO T-Rex hROMK stable cell line; thallium flux; 10-point concentration response curve; read-out: Human ROMK Th Flux IC50.
For another series, the target named is hERG channels (Homo sapiens (Human), UniProt Q12809). As to the kind of experiment: hERG Manual Patch Clamp Assay. Type of series: cell-based. The conditions noted are these: HEK 293 cells stably expressing hERG channels; for inhibition at 1 µM: human, pH 7.4, 1 uM, read-out: hERG EP % Inh @ 1 uM. In general terms: Block of hERG is tested as a sign of cardiac risk.
Sequence of hERG channels (Q12809 whole entry): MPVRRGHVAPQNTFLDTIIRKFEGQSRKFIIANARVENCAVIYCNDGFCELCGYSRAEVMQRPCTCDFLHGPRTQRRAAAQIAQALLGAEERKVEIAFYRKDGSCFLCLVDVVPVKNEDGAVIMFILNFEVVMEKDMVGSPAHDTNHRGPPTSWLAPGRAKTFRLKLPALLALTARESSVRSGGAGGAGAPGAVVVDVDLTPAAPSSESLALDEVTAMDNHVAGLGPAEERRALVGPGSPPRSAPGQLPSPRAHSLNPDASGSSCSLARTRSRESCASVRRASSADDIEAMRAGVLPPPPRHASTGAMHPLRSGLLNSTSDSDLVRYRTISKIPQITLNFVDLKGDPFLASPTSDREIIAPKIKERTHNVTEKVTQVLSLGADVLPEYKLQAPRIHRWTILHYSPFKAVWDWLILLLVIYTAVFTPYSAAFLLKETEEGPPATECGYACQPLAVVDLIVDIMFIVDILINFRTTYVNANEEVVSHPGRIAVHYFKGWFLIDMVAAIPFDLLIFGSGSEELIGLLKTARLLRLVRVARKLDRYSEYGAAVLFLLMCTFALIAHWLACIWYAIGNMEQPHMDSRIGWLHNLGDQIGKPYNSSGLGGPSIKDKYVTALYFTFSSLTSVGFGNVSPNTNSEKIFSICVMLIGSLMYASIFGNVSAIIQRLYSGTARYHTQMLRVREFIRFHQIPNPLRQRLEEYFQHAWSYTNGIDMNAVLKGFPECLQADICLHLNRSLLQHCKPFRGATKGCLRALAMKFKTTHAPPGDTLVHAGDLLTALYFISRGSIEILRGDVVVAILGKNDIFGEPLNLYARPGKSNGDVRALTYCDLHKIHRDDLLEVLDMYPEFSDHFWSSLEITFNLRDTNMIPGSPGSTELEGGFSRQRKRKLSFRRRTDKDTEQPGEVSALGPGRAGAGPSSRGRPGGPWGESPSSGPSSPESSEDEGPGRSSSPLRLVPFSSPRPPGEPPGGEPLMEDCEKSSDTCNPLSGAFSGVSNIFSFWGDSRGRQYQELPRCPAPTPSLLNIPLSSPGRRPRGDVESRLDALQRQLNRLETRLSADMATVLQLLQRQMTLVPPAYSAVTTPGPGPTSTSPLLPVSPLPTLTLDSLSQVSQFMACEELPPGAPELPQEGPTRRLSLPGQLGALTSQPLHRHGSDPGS

Sequence of hROMK (human Kir1.1) (P48048 whole entry): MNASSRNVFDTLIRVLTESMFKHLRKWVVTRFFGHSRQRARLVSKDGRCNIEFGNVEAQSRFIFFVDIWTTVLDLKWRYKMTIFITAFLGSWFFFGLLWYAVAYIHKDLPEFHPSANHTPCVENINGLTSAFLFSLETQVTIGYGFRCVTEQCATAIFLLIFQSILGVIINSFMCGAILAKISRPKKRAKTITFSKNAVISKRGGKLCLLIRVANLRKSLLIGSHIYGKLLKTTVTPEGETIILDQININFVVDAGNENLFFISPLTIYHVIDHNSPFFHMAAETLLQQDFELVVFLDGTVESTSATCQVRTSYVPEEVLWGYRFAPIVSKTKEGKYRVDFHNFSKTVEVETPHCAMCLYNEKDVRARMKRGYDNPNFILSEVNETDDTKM

As to `Cc1cc(-n2cc(CN3CC(CO)NC(c4ccc5c(c4C)COC5=O)C3)nn2)ncc1C#N` (single isomer, unassigned) [Example 88-III, 6-(4-((3-(hydroxymethyl)-5-(4-methyl-1-oxo-1,3-dihydroisobenzofur-an-5-yl)piperazin-1-yl)methyl)-1H-1,2,3-triazol-1-yl)-4-methylnicotinonitrile], at hROMK (human Kir1.1), the IC50 came to 36 nM. In addition, at hERG channels, the inhibition at 1 µM came to 8.3%.

On to `Cc1cc(-n2cc(CN3CCC(C)(O)C(c4ccc5c(c4C)COC5=O)C3)cn2)ncc1C#N` (single isomer, unassigned) [Example 114-I, 6-(4-((4-hydroxy-4-methyl-3-(4-methyl-1-oxo-1,3-dihydroisobenzofuran-5-yl)piperidin-1-yl)methyl)-1H-pyrazol-1-yl)-4-methylnicotinonitrile], for which the 50% inhibitory concentration (IC50) on hROMK (human Kir1.1) stood at 32 nM. Besides, the inhibition at 1 µM on hERG channels was 4.2%.

Regarding `Cc1cc(-n2cc(CN3CC(c4ccc5c(c4C)COC5=O)NCC3CO)cn2)ncc1C#N` (single isomer, unassigned) [Example 123-I, 6-(4-((2-(hydroxymethyl)-5-(4-methyl-1-oxo-1,3-dihydroisobenzofuran-5-yl)piperazin-1-yl)methyl)-1H-pyrazol-1-yl)-4-methylnicotinonitrile], the IC50 on hROMK (human Kir1.1) turned out to be 74 nM. Besides, on hERG channels, the inhibition at 1 µM was 7.2%.

As to `COc1cc(N2CCC(CN3CCN[C@H](c4ccc5c(c4C)COC5=O)C3)C2)ncc1C#N` (single isomer, unassigned) [Example 155-I], the IC50 at hROMK (human Kir1.1) came out at 11 nM. Also, the “hERG EP % Inh @ 1 uM” value at hERG channels (1 uM) is 26%.

For `Cc1cc(N2CCC(CN3CCN[C@H](c4ccc5c(c4C)COC5=O)C3)C2)ncc1C#N` (single isomer, unassigned) [Example 156-I], on hROMK (human Kir1.1), the IC50 was determined as 14 nM. The inhibition at 1 µM at hERG channels came to 51%.

`Cc1cc(N2CC(CN3CCN[C@H](c4ccc5c(c4C)COC5=O)C3)CC2=O)ncc1C#N` (single isomer, unassigned) [Example 158-I]: the IC50 on hROMK (human Kir1.1) is 36 nM. Besides, the inhibition at 1 µM at hERG channels worked out at 20%.

As to `COc1cc(N2CC(CN3C[C@@H](c4ccc5c(c4C)COC5=O)N[C@@H](C)C3)CC2=O)ncc1C#N` (single isomer, unassigned) [Example 170-I], on hROMK (human Kir1.1), the IC50 turned out to be 39 nM. For the same molecule, on hERG channels, the inhibition at 1 µM was determined as 26%.

On to `Cc1cc(-n2cc(CN3CCCC(c4ccc5c(c4C)COC5=O)C3)cn2)ncc1C#N` (single isomer, unassigned) [Example 197-I, 4-methyl-6-(4-((3-(4-methyl-1-oxo-1,3-dihydroisobenzofuran-5-yl)piperidin-1-yl)methyl)-1H-pyraozl-1-yl)nicotinonitrile], for which the IC50 on hROMK (human Kir1.1) stood at 15 nM. Besides, at hERG channels, the inhibition at 1 µM is 75%.

In the case of `Cc1cc(-n2cc(CN3CC(O)CC(c4ccc5c(c4C)COC5=O)C3)cn2)ncc1C#N` (single isomer, unassigned) [Example 199-IV, 6-(4-((3-hydroxy-5-(4-methyl-1-oxo-1,3-dihydroisobenzofuran-5-yl)piperidin-1-yl)methyl)-1H-pyrazol-1-yl)-4-methylnicotinonitrile], the IC50 at hROMK (human Kir1.1) stood at 16 nM. Also, the inhibition at 1 µM at hERG channels came to 22%.

Consider `COC1CC(c2ccc3c(c2C)COC3=O)CN(Cc2cnn(-c3cc(C)c(C#N)cn3)c2)C1` (single isomer, unassigned) [Example 200-II, 6-(4-((3-methoxy-5-(4-methyl-1-oxo-1,3-dihydroisobenzofuran-5-yl)piperidin-1-yl)methyl)-1H-pyrazol-1-yl)-4-methylnicotinonitrile], for which, at hROMK (human Kir1.1), the IC50 was found to be 64 nM. Also, at hERG channels, the inhibition at 1 µM is 27%.

`Cc1cc(-n2cc(CN3CC(F)CC(c4ccc5c(c4C)COC5=O)C3)nn2)ncc1C#N` (single isomer, unassigned) [Example 203-I, 6-(4-((3-fluoro-5-(4-methyl-1-oxo-1,3-dihydroisobenzofuran-5-yl)piperidin-1-yl)methyl)-1H-1,2,3-triaozl-1-yl)-4-methylnicotinonitrile]: at hROMK (human Kir1.1), the IC50 came to 43 nM. At hERG channels, the inhibition at 1 µM amounted to 16%.

`Cc1cc(-n2cc(CN3CC(c4ccc5c(c4C)COC5=O)NC(C(F)F)C3)cn2)ncc1C#N` (single isomer, unassigned) [Example 205-I, 6-(4-((3-(difluoromethyl)-5-(4-methyl-1-oxo-1,3-dihydroisobenzofuran-5-yl)piperazin-1-yl)methyl)-1H-pyrazol-1-yl)-4-methylnicotinonitrile]: the IC50 on hROMK (human Kir1.1) was 71 nM. Also, the inhibition at 1 µM at hERG channels is 10%.

For `Cc1cc(-n2cc(CN3CC(O)C(c4ccc5c(c4C)COC5=O)C3)cn2)ncc1C#N` (single isomer, unassigned) [Example 211-I, 6-(4-((3-hydroxy-4-(4-methyl-1-oxo-1,3-dihydroisobenzofuran-5-yl)pyrrolidin-1-yl)methyl)-1H-pyrazol-1-yl)-4-methylnicotinonitrile], the IC50 at hROMK (human Kir1.1) came out at 30 nM. The inhibition at 1 µM on hERG channels is 58%.

Regarding `Cc1cc(-n2cc(CN3CC(CO)CC(c4ccc5c(c4C)COC5=O)C3)cn2)ncc1C#N` (single isomer, unassigned) [Example 261-II, 6-(4-((3-(hydroxymethyl)-5-(4-methyl-1-oxo-1,3-dihydroisobenzofuran-5-yl)piperidin-1-yl)methyl)-1H-pyrazol-1-yl)-4-methylnicotinonitrile], the IC50 at hROMK (human Kir1.1) is 27 nM. Further, the inhibition at 1 µM on hERG channels worked out at 44%.

In the case of `Cc1cc(-c2cc(CN3CC(c4ccc5c(c4C)COC5=O)NC(C)(C)C3)on2)ncc1C#N` (single isomer, unassigned) [Example 268-I, 6-(5-((3,3-dimethyl-5-(4-methyl-1-oxo-1,3-dihydroisobenzofuran-5-yl)piperazin-1-yl)methyl)isoxazol-3-yl)-4-methylnicotinonitrile], the IC50 at hROMK (human Kir1.1) amounted to 20 nM. The inhibition at 1 µM at hERG channels came out at 9%.

In the case of `COc1c(CN2CCN[C@H](c3ccc4c(c3C)COC4=O)C2)cnn1-c1cc(C)c(C#N)cn1` [Example 6-I, (R)-6-(5-methoxy-4-((3-(4-methyl-1-oxo-1,3-dihydroisobenzofuran-5-yl)piperazin-1-yl)methyl)-1H-pyrazol-1-yl)-4-methylnicotinonitrile], the IC50 on hROMK (human Kir1.1) was 40 nM. Also, the inhibition at 1 µM at hERG channels came out at 38%.

Take `Cc1cc(-n2cc(CN3C[C@@H](c4ccc5c(c4C)COC5=O)OC3=O)cn2)ncc1C#N` [Example 9-I, (R)-4-methyl-6-(4-((5-(4-methyl-1-oxo-1,3-dihydroisobenzofuran-5-yl)-2-oxooxazolidin-3-yl)methyl)-1H-pyrazol-1-yl)nicotinonitrile]: the IC50 on hROMK (human Kir1.1) was found to be 44 nM. For the same molecule, the inhibition at 1 µM at hERG channels came out at 47%.

Consider `COc1cc(-n2cc(CCN3CCO[C@H](c4ccc5c(c4C)COC5=O)C3)cn2)ncc1C#N` [Example 11-I, (R)-4-methoxy-6-(4-(2-(2-(4-methyl-1-oxo-1,3-dihydroisobenzofuran-5-yl)morpholino)ethyl)-1H-pyrazol-1-yl)nicotinonitrile], for which the IC50 at hROMK (human Kir1.1) amounted to 30 nM. The inhibition at 1 µM at hERG channels worked out at 40%.

Take `Cc1c([C@@H]2CN(Cc3cnc(-n4cnc(C#N)c4)s3)CCN2)ccc2c1COC2=O` [Example 21-I, (R)-1-(5-((3-(4-methyl-1-oxo-1,3-dihydroisobenzofuran-5-yl)piperazin-1-yl)methyl)thiazol-2-yl)-1H-imidazole-4-carbonitrile]: on hROMK (human Kir1.1), the half-maximal inhibitory concentration (IC50) was 93 nM. In addition, the inhibition at 1 µM at hERG channels was determined as 8.5%.

Take `Cc1c([C@@H]2CN(Cc3cnn(-c4ccc5oc(=O)n(C)c5c4)c3)CCO2)ccc2c1COC2=O` [Example 25-I, (R)-3-methyl-5-(4-((2-(4-methyl-1-oxo-1,3-dihydroisobenzofuran-5-yl)morpholino)methyl)-1H-pyrazol-1-yl) benzo[d]oxazol-2(3H)-one]: on hROMK (human Kir1.1), the IC50 came out at 51 nM. Besides, the inhibition at 1 µM on hERG channels turned out to be 8.7%.

Regarding `COc1c(CN2CCO[C@H](c3ccc4c(c3C)COC4=O)C2)cnn1-c1cc(C)c(C#N)cn1` [Example 26-I, (R)-6-(5-methoxy-4-((2-(4-methyl-1-oxo-1,3-dihydroisobenzofuran-5-yl)morpholino)methyl)-1H-pyrazol-1-yl)-4-methylnicotinonitrile], at hROMK (human Kir1.1), the IC50 came to 69 nM. In addition, on hERG channels, the inhibition at 1 µM came to 20%.

For the molecule `Cc1c([C@@H]2CN(Cc3cnn(-c4cc(C(F)(F)F)c(C#N)cn4)c3)C[C@H](C)N2)ccc2c1COC2=O` [Example 196-I, 6-(4-(((3S,5R)-3-methyl-5-(4-methyl-1-oxo-1,3-dihydroisobenzofuran-5-yl)piperazin-1-yl)methyl)-1H-pyraozl-1-yl)-4-(trifluoromethyl)nicotinonitrile], the inhibition at 1 µM at hERG channels is 18%.

Turning to `Cc1c([C@@H]2CN(Cc3cnc(-n4cnc(C(F)(F)F)c4)nc3)CCN2)ccc2c1COC2=O` [Example 236-I, (R)-4-methyl-5-(4-((2-(4-(triflouromethyl)-1H-imidazol-1-yl)pyrimidin-5-yl)methyl)piperazin-2-yl)isobenzofuran-1(3H)-one], the inhibition at 1 µM on hERG channels turned out to be 20%.

With `[2H]C([2H])([2H])Oc1cc(-n2cc(CN3CCN[C@H](c4ccc5c(c4C)COC5=O)C3)nn2)ncc1C#N` [Example 263-I, (R)-4-(methoxy-d3)-6-(4-((3-(4-methyl-1-oxo-1,3-dihydroisobenzofuran-5-yl)piperazin-1-yl)methyl)-1H-1,2,3-triazol-1-yl)nicotinonitrile], the inhibition at 1 µM at hERG channels was 10%.

Take `Cc1c([C@@H]2CN(Cc3cn(-c4ccnc(C(F)F)c4)c(=O)n3C)C[C@H](C)N2)ccc2c1COC2=O` [Example 276-I, 1-(2-(difluoromethyl)pyridin-4-yl)-3-methyl-4-(((3S,5R)-3-methyl-5-(4-methyl-1-oxo-1,3-dihydroisobenzofuran-5-yl)piperazin-1-yl)methyl)-1,3-dihydro-2H-imidazol-2-one]: the inhibition at 1 µM on hERG channels worked out at 5.4%.

Broadly, the IC50 is the concentration at which inhibition is half-maximal.
